This is an account of results in patent US4808584A, “Quinolinecarboxylic acid derivatives and antibacterial agent containing the same” (Kanebo, Ltd., priority 1987, dated 1989).

Where a name gives a salt, the structure may show the parent alone.

The test system of data set [1] is Staphylococcus aureus IID 803. In words: Effect on treatment of general infectious disease. The data set is classed as in vivo, ddY male mice. To be noted: IID803, 168 h, S. aureus IID 803, 1.0×10^6 CFU/mouse i.p., oral one hour after infection, survival after one week. How it is done:
Staphylococcus aureus IID 803 (1.0×10^6 CFU/mouse)
(§1) The test microorganisms were subjected to standing culture in Trypto-Soya Agar "Nissui" (made by Nissui Seiyaku K.K., Japan) at 37° C. for 16 to 18 hours. The culture was then diluted with PBS (Dulbecco's phosphate buffered saline) and mixed with an equivalent amount of 10% (w/v) Mucin (BACTO MUCIN BACTERIOLOGICAL, made by Difco Co.) to prepare a microorganism solution. The thus prepared microorganism solution (0.5 ml each) was intraperitoneally innoculated to ddY male mice (4 weeks age, weighing 20-22 g, 5 mice in each group), to infect the animals. One hour after the infection, the compound (B) of the present invention dissolved in sterilized distilled water or ofloxacin suspended in 0.5% (w/v) aqueous sodium carboxymethyl cellulose solution was orally adiministered to mice.
(§2) The mice were daily observed for one week, and from the survival number of mice after one week, the 50% effective dose (ED50) was calculated by Weil method.

The test system of data set [2] is Pseudomonas aeruginosa IFO 3445. In words: Minimum inhibitory concentration (MIC). The format is cell-based. The note with it: Pseudomonas aeruginosa IFO 3445, Gram -. As for the experimental part:
(§3) The compounds of the present invention (A, C, E, F, G, H and I) and ofloxacin as control were dissolved in 0.1N aqueous potassium hydroxide to prepare a solution of 5000 μg/ml in concentration. The compounds of the present invention (B, D and J) were dissolved in sterilized distilled water to prepare a solution of 5000 μg/ml in concentration. Each solution was diluted with sterilized distilled water to prepare a standard solution with a concentration of each test compound: 1000 μg/ml. The test was carried out by a method approved by Japan Society of Chemotherapy [cf. Chemotherapy, 29, 76-79 (1981)(TOKYO)].

Data set [3] has as its system Streptococcus faecalis IID 682. In words: Minimum inhibitory concentration (MIC). To be noted: Streptococcus faecalis IID 682, Gram +. The data set is classed as cell-based. How it is done: as §3
Data set [4] relates to Serratia marcescens IAM 1184. Put plainly: Minimum inhibitory concentration (MIC). The format is cell-based. The note with it: Serratia marcescens IAM 1184, Gram -. As for the experimental part:
as §3

For data set [5], the system named is Klebsiella pneumoniae PCI 602. In words: Minimum inhibitory concentration (MIC). The data set is classed as cell-based. The note with it: Klebsiella pneumoniae, PCI602, Klebsiella pneumoniae PCI 602, Gram -; read-out: Minimum inhibitory concentration (MIC). How it is done: as §3
The next data set relates to E. coli KC-14. Put plainly: Effect on treatment of infectiousness of the genito-urinary tract. The format is in vivo, ICR female mice. The note with it: Escherichia coli, KC14, 48 h; E. coli KC-14, 5.6×10^5 CFU/mouse into urinary bladder; oral; not more than 10^4 living bacteria/1 g of kidney regarded as effective. As for the experimental part: 2. Test microorganism and inoculum size E. coli KC-14 (5.6×10^5 CFU/mouse) 3. Method:
A microorganism solution (0.1 ml) prepared in the same manner as described in Experiment 3 was introduced into urinary bladder through urinary tract of ICR female mice (5 weeks age, weighing 20 to 22 g, 5 mice in each group), and then urinary meatus was clasped with clip for 4 hours to infect the animals. After taking off the clip, the compound (B) of the present invention dissolved in sterilized distilled water or ofloxacin suspended in 0.5% aqueous sodium carboxymethyl cellulose solution was orally administered to mice. Two days after the infection, mice kidneys were taken out and weighed, to which PBS (Dulbecco's phosphate buffered saline) was added and the mixture was homogenized. The homogenate was then diluted with PBS and inoculated onto a plate of modified Drigalski Agar (BTB lactose agar "Nissui", made by Nissui Seiyaku K.K., Japan) and cultured at 37° C. for 18 hours. The number of the colonies of infectious bacteria grown on the plate was counted. The number of living bacteria per 1 g of kidney was calculated from the number of colonies and the kidney weight. The living bacteria number/1 g of kidney of not more than 10^4 was regarded as effective and an effective dose for 50% mice (ED50) was calculated by Weil method.

The test system of the next data set is Escherichia coli KC-14. In words: Effect on treatment of general infectious disease. The note with it: KC14, 168 h, E. coli KC-14, 1.2×10^4 CFU/mouse i.p., oral one hour after infection, survival after one week. The data set is classed as in vivo, ddY male mice. As for the experimental part:
Escherichia coli KC-14 (1.2×10^4 CFU/mouse)
as §1, §2

The subject of data set [6] is methicillin resistant Staphylococcus aureus. In words: Minimum inhibitory concentration against clinically isolated methicillin resistant Staphylococcus aureus. The format is cell-based. How it is done: The compound (B) was dissolved in sterilized distilled water, and ofloxacin in 0.1N aqueous potassium hydroxide, to prepare a solution of 5000 μg/ml in concentration each. The above solutions were then diluted with sterilized distilled water to prepare a standard solution with a concentration of the test compound: 1000 μg/ml each. The test was carried out by a method approved by Japan Society of Chemotherapy (ibidem) to measure minimum inhibitory concentration (MIC) against 54 strains of clinically isolated methicillin resistant Staphylococcus aureus, from which there were calculated a range of MIC (MICrange) of the test compound against these resistant strains, a minimum concentration for inhibiting the growth of the strains by 50% (MIC50) and a minimum concentration for inhibiting the growth of the strains by 90% (MIC90).

The test system of data set [7] is Pseudomonas aeruginosa E-2. In words: Effect on treatment of general infectious disease. The format is in vivo, ddY male mice. To be noted: E2, 168 h, P. aeruginosa E-2, 1.6×10^4 CFU/mouse i.p., oral one hour after infection, survival after one week. As for the experimental part: Pseudomonas aeruginosa E-2 (1.6×10^4 CFU/mouse)
as §1, §2

A further data set relates to ddY male mice. In words: Acute toxicity (LD50). The data set is classed as in vivo. To be noted: oral, ddY male mice fasted for 18 hours, Weil method. As for the experimental part:
The compound (B) of the present invention was dissolved in sterilized distilled water and the solution was orally administered to ddY male mice (5 weeks age, weighing 20 to 25 g, 5 mice in each group), which had been fasted for 18 hours.

On to `CN1CCN(c2c(F)cc3c(=O)c(C(=O)O)c4scc5n4c3c2OC5)CC1` [Compound (B), 9,1-Epoxymethano-7-fluoro-8-(4-methyl-1-piperazinyl)-5-oxo-5H-thiazolo[3,2-a]quinoline-4-carboxylic acid.hydrochloride], for which the ED50 (usually the dose at which the effect has come halfway, by size or by number of responders) turned out to be 8.1 mg/kg in data set [1], 21.7 mg/kg in the data set on E. coli KC-14, 1 mg/kg with Escherichia coli KC-14 and 17.7 mg/kg in [7]. Further, the figures for the “Minimum inhibitory concentration (MIC)” value in [2], in [3] and in data set [4] were 1.56 µg/mL, 0.78 µg/mL and 0.39 µg/mL, respectively. Also, the MIC was 0.025 µg/mL in [5] and 0.1 to 0.39 µg/mL in [6] (54 strains of clinically isolated methicillin resistant Staphylococcus aureus). Also, in data set [6] (Staphylococcus aureus, minimum concentration for inhibiting the growth of the strains by 50%, 54 strains), the MIC50 (commonly an inhibitory concentration at the 50% level, which refers to growth in some studies and to a panel of isolates in others) turned out to be 0.2 µg/mL. The MIC90 (usually an inhibitory concentration at the 90% level, which refers to growth in some studies and to a panel of isolates in others) in data set [6] (Staphylococcus aureus, minimum concentration for inhibiting the growth of the strains by 90%, 54 strains) worked out at 0.2 µg/mL. Also, the LD50 (usually the dose at which mortality reaches 50%) in the data set with ddY male mice turned out to be 1231 mg/kg.
